The record followed here is publication PMC5390315 (Scientific Reports, 2017).

Where “and” joins values, the source holds several entries; their conditions need not be identical. Equal values may be shown once. Read-outs that look alike come from different tables or passages of the source.

One assay deals with HT-29. Description: Antiproliferative MTT assay, HT-29. It counts as cell-based, human. The conditions noted are these: Homo sapiens, HT-29, 72 h, mean ± SE. The procedure: (§1) Human T-cell leukemia (Jurkat) and human B-cell leukemia (SEM and RS4;11) cells were grown in RPMI-1640 medium (Gibco, Milano, Italy). Breast adenocarcinoma (MCF-7), human cervix carcinoma (HeLa), human lung adenocarcinoma (A549) and human colon adenocarcinoma (HT-29) cells were grown in DMEM medium (Gibco, Milano, Italy), all supplemented with 115 units/mL penicillin G (Gibco, Milano, Italy), 115 μg/mL streptomycin (Invitrogen, Milano, Italy), and 10% fetal bovine serum (FBS; Invitrogen, Milano, Italy). Stock solutions (10 mM) of the different compounds were obtained by dissolving them in DMSO. Individual wells of a 96-well tissue culture microtiter plate were inoculated with 100 μL of complete medium containing 8 × 10^3 cells. The plates were incubated at 37 °C in a humidified 5% CO2 incubator for 18 h prior to the experiments. After medium removal, 100 μL of fresh medium containing the test compound at different concentrations was added to each well in triplicate and incubated at 37 °C for 72 h. The percentage of DMSO in the medium never exceeded 0.25%. This was also the maximum DMSO concentration in all cell-based assays described below.

The next assay concerns Jurkat. Description: Antiproliferative MTT assay, Jurkat. It counts as cell-based, human. The conditions noted are these: Homo sapiens, Jurkat, 72 h, mean ± SE. The procedure:
as §1
In general terms: Tetrazolium dyes change colour on reduction, which living cells bring about.

The test system of a further assay is RS 4;11. As to the kind of experiment: Antiproliferative MTT assay, RS 4;11. It counts as cell-based, human. The conditions noted are these: Homo sapiens, RS4-11, 72 h, mean ± SE. The procedure: as §1
Assay [1] has as its system PBL not stimulated with PHA. Description: Cytotoxicity in resting peripheral blood lymphocytes. It counts as cell-based. The conditions noted are these: Homo sapiens, Lymphocyte, 72 h, MTT, mean ± SEM, read-out: IC50 PBLresting. The procedure:
(§2) Peripheral blood lymphocytes (PBL) from healthy donors were obtained from human peripheral blood (leucocyte rich plasma- buffy coats) from healthy volunteers using the Lymphoprep (Fresenius KABI Norge AS) gradient density centrifugation.
(§3) After extensive washing, cells were resuspended (1.0 × 10^6 cells/mL) in RPMI-1640 with 10% FBS and incubated overnight. For cytotoxicity evaluations in proliferating PBL cultures, non-adherent cells were resuspended at 5 × 10^5 cells/mL in growth medium, containing 2.5 μg/mL PHA (Irvine Scientific). Different concentrations of the test compounds were added, and viability was determined 72 h later by the MTT test. For cytotoxicity evaluations in resting PBL cultures, non-adherent cells were resuspended (5 × 10^5 cells/mL) and treated for 72 h with the test compounds, as described above.

A further assay has as its system PBL stimulated with PHA. Description: Cytotoxicity in PHA-stimulated peripheral blood lymphocytes. It counts as cell-based. As to conditions: Homo sapiens, Lymphocyte, 72 h, MTT, mean ± SEM, read-out: IC50 PBLPHA. The procedure: as §2, §3
The next assay concerns tubulin. Description: Inhibition of [3H]colchicine binding to tubulin. As to conditions: tubulin 1 μM, [3H]colchicine 5 μM. The procedure:
To evaluate the effect of the compounds on tubulin assembly in vitro[41], varying concentrations of compounds were preincubated with 10 μM bovine brain tubulin in 0.8 M monosodium glutamate (pH adjusted to 6.6 with HCl in a 2.0 M stock solution) at 30 °C and then cooled to 0 °C. After addition of 0.4 mM GTP, the mixtures were transferred to 0 °C cuvettes in a recording spectrophotometer and warmed to 30 °C. Tubulin assembly was followed turbidimetrically at 350 nm. […] The capacity of the test compounds to inhibit colchicine binding to tubulin was measured as described, except that the reaction mixtures contained 1 μM tubulin, 5 μM [^3H]colchicine and 1 or 5 μM test compound.

In assay [2] the test system is panel of seven human tumor cell lines. As to the kind of experiment: Antiproliferative activity, range over panel of seven human tumor cell lines. It counts as cell-based. The conditions noted are these: read-out: IC50 values, range over the cell line panel. As for the experimental part:
as §1

The subject of assay [3] is HeLa cells. Description: Mitotic cells by p-histone H3/PI flow cytometry. It is filed as cell-based, human. The conditions noted are these: 100 nM, 24 h, untreated 1.3%.
For assay [4], the system named is HeLa cells. As to the kind of experiment: Annexin-V/PI apoptosis assay, HeLa. It is filed as cell-based, human. As to conditions: 60 nM, 24 h. The procedure:
Cell death was determined by flow cytometry of cells double stained with annexin V/FITC and PI. The Coulter Cytomics FC500 (Beckman Coulter) was used to measure the surface exposure of PS on apoptotic cells according to the manufacturer’s instructions (Annexin-V Fluos, Roche Diagnostics).

The test system of assay [5] is HeLa cells. As to the kind of experiment: ROS production (H2-DCFDA), HeLa. The conditions noted are these: 100 nM, untreated about 4%. It is filed as cell-based, human.
The test system of a further assay is HUVECs. As to the kind of experiment: Disruption of capillary-like tubes on Matrigel. The conditions noted are these: 100 nM (highest concentration), 24 h. It counts as cell-based, human. The procedure: HUVECs were prepared from human umbilical cord veins, as previously described. The adherent cells were maintained in M200 medium supplemented with LSGS (Low Serum Growth Supplement), containing FBS, hydrocortisone, hEGF, bFGF, heparin, gentamycin/amphotericin (Life Technologies, Monza, Italy). Once confluent, the cells were detached by a trypsin–EDTA solution and used in experiments from the first to sixth passages.
Matrigel matrix (Basement Membrane Matrix, BD Biosciences, Italy) was kept at 4 °C for 3 h, when 230 μL of Matrigel solution was added to each well of a 24-well plate. After gelling at 37 °C for 30 min, gels were overlaid with 500 μL of medium containing 6 × 10^4 HUVECs. The cells were incubated over Matrigel for 6 h to allow capillary tubes to form. Different concentrations of test compound were added in the cultures and incubated for different times, and the disappearance of existing vasculature was monitored and photographed (five fields for each well: the four quadrants and the center) at a 10x magnification. Phase contrast images were recorded using a digital camera and saved as TIFF files. Image analysis was carried out using ImageJ image analysis software, and dimensional (percent area covered by HUVECs and total length of HUVECs network per field) and topological parameters (number of meshes and branching points per field) were determined. Values were expressed as percent change from control cultures grown with complete medium.

As for `CCOc1ccc(-c2oc(C)nc2-c2cc(OC)c(OC)c(OC)c2)cc1` [Compound 4i, 4-(3,4,5-Trimethoxyphenyl)-5-(4-ethoxyphenyl)-2-methyloxazole], the concentration for half-maximal inhibition (IC50) (as a rule, the concentration that inhibits the measured activity by half) is 20.2 ± 8.8 nM with HT-29; 4.1 ± 1.1 nM in the assay with Jurkat; 2.1 ± 0.2 nM in the assay on RS 4;11; 14900 ± 3500 nM in assay [1]; 18300 ± 1500 nM in the assay on PBL stimulated with PHA; 0.5 to 20 nM in assay [2] (Homo sapiens). The IC50 in [2] was 0.5 to 20.2 nM. Further, in the assay with tubulin (1 μM drug), the “Colchicine binding % inhibition ± S.D, 1 μM drug” value was found to be 62 ± 0.4%. Further, the “Colchicine binding % inhibition ± S.D, 5 μM drug” value with tubulin (5 μM drug) was 82% and 86 ± 1%. In addition, the “percentage of mitotic cells (p-histone H3)” value in the assay on HeLa cells [3] is listed as about 46%. Further, in the assay on HeLa cells [4], the “apoptotic cells (annexin-V)” value worked out at 70%. Further, the “DCF positive cells (ROS production)” value with HeLa cells [5] was 25–30%. In addition, the “antivascular effect on Matrigel preformed tubular structures” value with HUVECs is listed as “did not show a significant antivascular effect”.
